These are literature values, as cited in patent US20140080794A1, “Methods and Compositions for the Treatment of Estrogen-Dependent Hyperproliferative Uterine Disorders” (Vivus, Inc., priority 2008, published 2014).

Structures are written as SMILES.

The data set has as its system endometriosis patients.

`CC(C)(C#N)c1cc(Cn2cncn2)cc(C(C)(C)C#N)c1` [anastrozole, α, α, α′, α′-tetramethyl-5-(1H-1,2,4-triazol-1-ylmethyl)-1,3-benzene-diacetonitrile]: the symptoms of endometriosis entry (1 mg anastrozole and an oral contraceptive (20 μg ethinyl estradiol/1 mg levonorgestrel) per day for six months) was “symptom improvement”. In addition, the systemic estradiol levels entry (1 mg anastrozole and an oral contraceptive (20 μg ethinyl estradiol/1 mg levonorgestrel) per day, all patients, by the end of the treatment period) is listed as “significantly suppressed”.
